Reference: ChEMBL document CHEMBL5727989, “Compounds useful as inhibitors of ATR kinase” (2020)

target: Serine/threonine-protein kinase ATR (Homo sapiens, UniProt Q13535); experiment: Inhibition Assay: Assays were carried out at 25° C. in the presence of 5 nM full-length ATR. An assay stock buffer solution was prepared containing all of the reagents listed above, with the exception of ATP and the test compound of interest. 13.5 μL of the stock solution was placed in a 96 well plate followed by addition of 2 μL of DMSO stock containing serial dilutions of the test compound (typically starting from a final concentration of 15 μM with 3-fold serial dilutions) in duplicate (final DMSO concentration 7%). The plate was pre-incubated for 10 minutes at 25° C. and the reaction initiated by addition of 15 μL [γ-33P]ATP (final concentration 10 μM). The reaction was stopped after 24 hours by the addition of 30 μL 0.1M phosphoric acid containing 2 mM ATP. A multiscreen phosphocellulose filter 96-well plate (Millipore, Cat no. MAPHN0B50) was pretreated with 100 μL 0.2M phosphoric acid prior to the addition of 45 μL of the stopped assay mixture. The plate was washed with 5×200 μL 0.2M phosphoric acid. After drying, 100 μL Optiphase SuperMix liquid scintillation cocktail (Perkin Elmer) was added to the well prior to scintillation counting (1450 Microbeta Liquid Scintillation Counter, Wallac).
Sequence (Q13535 whole entry): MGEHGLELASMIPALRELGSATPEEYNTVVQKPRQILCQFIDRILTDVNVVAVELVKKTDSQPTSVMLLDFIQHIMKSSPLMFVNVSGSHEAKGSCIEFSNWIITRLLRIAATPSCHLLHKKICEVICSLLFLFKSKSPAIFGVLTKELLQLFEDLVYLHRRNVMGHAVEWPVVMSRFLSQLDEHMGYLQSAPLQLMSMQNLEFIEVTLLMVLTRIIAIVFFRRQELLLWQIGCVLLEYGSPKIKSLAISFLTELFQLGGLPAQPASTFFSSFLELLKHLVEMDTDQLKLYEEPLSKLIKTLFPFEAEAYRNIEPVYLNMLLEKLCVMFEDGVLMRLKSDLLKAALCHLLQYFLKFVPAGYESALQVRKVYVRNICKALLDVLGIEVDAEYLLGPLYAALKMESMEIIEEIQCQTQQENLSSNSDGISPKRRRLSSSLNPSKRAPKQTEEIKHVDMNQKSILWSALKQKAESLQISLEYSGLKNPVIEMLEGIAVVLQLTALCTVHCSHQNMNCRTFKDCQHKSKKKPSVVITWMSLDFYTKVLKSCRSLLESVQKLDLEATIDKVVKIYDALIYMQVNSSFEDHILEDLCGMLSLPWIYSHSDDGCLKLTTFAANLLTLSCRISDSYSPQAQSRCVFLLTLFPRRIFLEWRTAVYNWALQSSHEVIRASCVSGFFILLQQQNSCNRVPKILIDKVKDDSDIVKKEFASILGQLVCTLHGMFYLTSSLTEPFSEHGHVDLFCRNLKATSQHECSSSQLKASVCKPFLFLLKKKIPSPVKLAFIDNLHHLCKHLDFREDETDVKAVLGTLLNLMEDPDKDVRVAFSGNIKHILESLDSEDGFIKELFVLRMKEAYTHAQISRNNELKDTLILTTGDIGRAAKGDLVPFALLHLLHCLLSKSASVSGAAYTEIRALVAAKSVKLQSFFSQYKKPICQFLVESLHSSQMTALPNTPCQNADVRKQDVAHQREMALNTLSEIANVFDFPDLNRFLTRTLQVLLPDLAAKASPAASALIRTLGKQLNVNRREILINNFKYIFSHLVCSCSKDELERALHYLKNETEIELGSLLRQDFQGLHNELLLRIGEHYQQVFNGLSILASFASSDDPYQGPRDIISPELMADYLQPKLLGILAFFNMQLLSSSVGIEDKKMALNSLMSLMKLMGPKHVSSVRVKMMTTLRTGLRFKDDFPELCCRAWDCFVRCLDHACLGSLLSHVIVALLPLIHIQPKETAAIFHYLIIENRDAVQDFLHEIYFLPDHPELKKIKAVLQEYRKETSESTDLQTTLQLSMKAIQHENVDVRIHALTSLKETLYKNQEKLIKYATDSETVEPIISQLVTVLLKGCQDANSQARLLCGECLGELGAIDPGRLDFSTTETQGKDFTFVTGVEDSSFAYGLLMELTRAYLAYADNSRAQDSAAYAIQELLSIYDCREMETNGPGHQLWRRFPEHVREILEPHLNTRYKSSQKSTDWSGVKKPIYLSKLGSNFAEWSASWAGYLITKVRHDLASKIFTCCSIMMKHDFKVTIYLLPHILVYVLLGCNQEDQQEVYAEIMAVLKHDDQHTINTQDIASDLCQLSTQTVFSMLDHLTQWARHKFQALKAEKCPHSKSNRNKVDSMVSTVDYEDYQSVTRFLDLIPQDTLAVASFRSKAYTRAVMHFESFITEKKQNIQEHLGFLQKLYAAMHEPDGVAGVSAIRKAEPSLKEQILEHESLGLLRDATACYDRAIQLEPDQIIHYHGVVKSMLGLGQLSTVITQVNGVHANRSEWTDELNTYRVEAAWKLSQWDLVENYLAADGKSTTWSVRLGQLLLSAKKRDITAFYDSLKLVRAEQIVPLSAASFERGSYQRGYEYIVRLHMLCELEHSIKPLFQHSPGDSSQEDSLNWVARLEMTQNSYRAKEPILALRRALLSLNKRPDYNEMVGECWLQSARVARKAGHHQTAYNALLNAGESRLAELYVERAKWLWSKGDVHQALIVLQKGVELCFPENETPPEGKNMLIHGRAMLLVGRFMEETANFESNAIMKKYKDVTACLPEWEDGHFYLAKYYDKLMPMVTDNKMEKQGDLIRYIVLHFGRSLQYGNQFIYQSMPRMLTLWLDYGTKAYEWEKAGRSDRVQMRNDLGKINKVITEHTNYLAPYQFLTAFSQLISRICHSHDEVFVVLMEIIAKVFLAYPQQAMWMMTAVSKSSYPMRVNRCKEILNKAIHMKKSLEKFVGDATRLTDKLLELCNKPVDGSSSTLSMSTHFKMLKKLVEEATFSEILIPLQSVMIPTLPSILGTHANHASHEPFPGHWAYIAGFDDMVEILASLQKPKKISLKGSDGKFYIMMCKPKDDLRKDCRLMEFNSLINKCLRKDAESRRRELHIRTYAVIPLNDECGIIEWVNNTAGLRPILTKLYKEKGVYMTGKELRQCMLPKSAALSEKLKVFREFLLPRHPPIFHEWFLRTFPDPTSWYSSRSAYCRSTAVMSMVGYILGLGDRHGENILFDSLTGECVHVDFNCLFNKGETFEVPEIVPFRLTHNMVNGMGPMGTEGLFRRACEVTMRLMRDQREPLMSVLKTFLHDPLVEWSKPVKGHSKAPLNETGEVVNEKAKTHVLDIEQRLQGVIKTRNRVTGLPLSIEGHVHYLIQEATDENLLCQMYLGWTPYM

Row | Compound | Ki
1 | CNC(=O)C1CCN(c2c(F)cncc2NC(=O)c2c(N)nn3cc(F)cnc23)CC1 | in the range around 505 nM
2 | Nc1nn2cc(F)cnc2c1C(=O)Nc1cnccc1N1CCCCC1 | in the range around 505 nM
3 | Nc1nn2cc(F)cnc2c1C(=O)Nc1cnccc1N1CCOCC1 | in the range around 505 nM
4 | COC1CCN(c2ccncc2NC(=O)c2c(N)nn3cc(F)cnc23)CC1 | in the range around 505 nM
5 | CN(C)CCNC(=O)C1CCN(c2c(F)cncc2NC(=O)c2c(N)nn3cc(F)cnc23)CC1 | in the range around 505 nM
6 | Cc1nn(C)cc1-c1ccncc1NC(=O)c1c(N)nn2cc(F)cnc12 | in the range around 505 nM
